Columns and labels:
[1] = tested on: Dunkin Hartley guinea pigs; experiment: Monoiodoacetate (MIA) In Vivo Model, incapacitance testing; set-up: species or system guinea pig; conditions: for Mean % Reduction of Pain Compared to Vehicle / Mean Difference in Hind Paw Weight Bearing (Saline knee-MIA knee): four hours post-dose; for Mean Difference in Hind Paw Weight Bearing (Saline knee-MIA knee): 9 days after MIA, Mean ± SEM, n=6; for pain versus vehicle (statistical comparison): Example 1 both doses (10 and 50 mg/kg), diclofenac 30 mg/kg, p<0.05 by Dunnett's test
Procedure: Male Dunkin Hartley guinea pigs weighing approximately 200-250 grams at the time of MIA injection are used to measure pain in the MIA model. The guinea pigs are group housed in a child's wading pool and maintained in a constant temperature and on a 12 hour light/12 hour dark cycle. On the day before study, the guinea pigs are moved to standard caging with 2 animals per cage. Animals have free access to food and water at all times except during data collection. All experiments are carried out according to protocols approved by the Eli Lilly Institutional Animal Care and Use Committees.
In the standard MIA model the right knees of each guinea pig are injected with MIA (0.3 mg) in saline ([…]) and the left knees with saline (50 μl). Pain is measured at 9 days after MIA injection using incapacitance testing. Incapacitance testing measures the difference in hind paw weight bearing between the MIA and saline injected knees, and each value represents the average of 3 separate measurements each measured over 1 second.
For this study, guinea pigs, are dosed with either vehicle (10% Cremophor® EL (CAS 61791-12-6) in saline) or Example 1 (10 or 50 mg/kg). A fourth group of guinea pigs are also dosed with the nonsteroidal anti-inflammatory drug diclofenac (vehicle saline, 30 mg/kg), which acts as a positive control for the study, as it has previously shown efficacy in the model. All dosing is subcutaneous at a dose volume of 5 ml/kg and group size is n=6. Dose group is randomly assigned to each animal and dosing is staggered by 10 minutes for each guinea pig. Four hours post-dose, pain is measured using incapacitance testing. Results are reported in Table 13 as the mean difference in weight bearing between saline and MIA injected knees and statistical comparisons are made between vehicle treated and compound treated animals to assess the effect of the compound of Example 1 on knee pain in the model.
Data is evaluated by one way analysis of variance; p<0.05 by Dunnett's test for comparison to vehicle and a Bonferroni adjustment is used for comparison between groups.

[2] = tested on: PGE2 formation; experiment: Cell Based Assay for Measuring Eicosanoid Selectivity (A549, rhIL-1β induced PGE2); conditions: Homo sapiens; A549 cells, rhIL-1β 0.1-0.2 ng/mL, approx. 18 hours; mean±standard deviation; n=4; read-out: IC50 inhibition of PGE2 formation
Procedure: (§1) Human epithelial lung carcinoma cell line A549 is obtained from ATCC (CCL-185) and is maintained in Kaighn's F12 (“F12K”)+10% fetal bovine serum, (FBS) (plating medium), and 5% CO2. The cells are passaged at 1:3 twice a week.
(§2) For this assay, cells are released from flasks by washing once with phosphate buffered saline (PBS), then once with Trypsin/EDTA. After 3-5 minutes at 37° C., the cells are suspended in 10 mL of plating medium, and centrifuged at 2,000 rpm at 25° C. for 5 minutes. The supernatant is aspirated, and the cell pellet is resuspended in 10 mL F12K. Cell number is determined by counting an aliquot of cells, which has been diluted in PBS and Trypan blue on a hemocytometer. Cells are plated at 40,000/well in 96 well Falcon plates 24 hours prior to treatment. […] The plates are incubated at room temperature for 30-45 minutes, and then read on a plate reader at A490 to determine viability. […]
(§3) The conditioned medium is assayed for levels of PGE2 and PGI2 by specific enzyme immune-assays (ETAs) according to the manufacturer's protocols (Cayman) Briefly, conditioned medium (1 μL) is added to each well of a 96 well plate coated with a capture antibody and containing ETA buffer (49 μL) supplied by the manufacturer. […] After approximately 45 minutes at room temperature on an orbital shaker at 100 rpm, the plates are read at A412 on a plate reader. […]

[3] = tested on: PGF2α and TXB2 production; experiment: Human Whole Blood Assay (LPS, PGF2α and TXB2); assay type: cell-based; conditions: LPS 100 μg/mL, 20-24 hours
Procedure: Blood is collected from normal volunteer donors into sodium heparin vacutainer tubes. Donors have not taken NSAIDs, aspirin, Celebrex, or glucocorticoids within two weeks of the donation. All tubes/donor are pooled into 250 mL Corning conical centrifuge tubes and 436.5 μL/well is distributed into deep well polypropylene plates. Compounds are diluted in DMSO to 100× final and 4.5 μL/well in duplicate or triplicate is added to give 7 point curves. The blood is pretreated at 37° C., 5% CO2, in a humidified atmosphere, loosely covered with a silicone cap mat, for 30 minutes after which 9 μL/well of a solution of 5 mg/mL of lipopolysaccharide (LPS) (Sigma 0111:B4) in 1 mg/mL bovine serum albumin (BSA)/PBS is added to give a final LPS concentration of 100 μg/mL. The plates are incubated for 20-24 hours, loosely covered, at 37° C., 5% CO2, in a humidified atmosphere, on an orbital shaker at approximately 100 rpm. The plates are tightly sealed with silicone cap mats and are chilled on ice for approximately 1 hour. Then the plates are centrifuged at 1800×g, 10 minutes, 4° C., in an Eppendorf 5810R centrifuge. […] One hundred microliters is quantitatively transferred to Costar cluster tubes blocks and 400 μL/well of the methanol stop reagent and internal standards, d-4PGE2, d-4PGF2α, and d-4TX2β are added. […] The products were analyzed by LC/MS/MS.

[4] = molecular target: T1, Human mPGES-1 (Homo sapiens, UniProt O14684); experiment: Human mPGES-1 Enzyme Inhibition Assay; assay type: biochemical; conditions: microsomes from 293E cells, 1.69 μM PGH2; mean±standard deviation; n=10/22
T1 construct: host or cells: 293E cells (transient expression from pcDNA3.1); microsomes
T1 sequence (O14684 1-152): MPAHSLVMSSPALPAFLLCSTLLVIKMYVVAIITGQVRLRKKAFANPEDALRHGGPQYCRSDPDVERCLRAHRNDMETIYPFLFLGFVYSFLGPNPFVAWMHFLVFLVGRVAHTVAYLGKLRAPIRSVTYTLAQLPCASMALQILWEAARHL
Procedure: Human mPGES-1 (Invitrogen™ (Cat #97002RG, clone ID 6374722)) is subcloned into pcDNA3.1 and transiently expressed in 293E cells. […] Briefly, pellets are brought up in homogenization buffer (15 mM Tris-HCl, pH 8.0; 0.25 M sucrose; 0.1 mM EDTA; 1 mM glutathione) and sonicated 5×30 seconds on ice. Homogenate is centrifuged at 5000×g for 10 minutes at 4° C. The supernatant fraction is decanted; loaded into Beckman Quick-Seal® tubes; and centrifuged at 150,000×g for 90 minutes at 4° C. The supernatant fraction is discarded by decantation; and the pellets are resuspended in assay buffer (10 mM sodium phosphate (pH 7.0), 10% glycerol, and 2.5 mM glutathione. Complete Protease Inhibitor Cocktail (Roche)). Protein concentration is determined using the Pierce Coomassie Plus™ reagent.
For the enzyme assay, the microsomes are diluted into assay buffer and 7 μL/well is added to 384 well plates. Compound dilution plates (Nunc Cat #249944) are generated on a Multimek™, and 1 μL/well is added to the assay plates. Prostaglandin H2 (PGH2) is diluted into assay buffer immediately before use and 7 μL/well is added. Final concentrations are 4.4 μg/mL microsomes and 1.69 μM PGH2. After a 2.5 minute incubation at room temperature, 2.5 μL/well of 1 mg/mL of snCl2 in 0.5 N HCl is added to stop the reaction. […]

[5] = tested on: synthesis of other prostanoids; experiment: Cell Based Assay for Measuring Eicosanoid Selectivity (A549, other prostanoids, PGI2); set-up: species or system human; conditions: A549 cells, rhIL-1β; PGI2 by enzyme immunoassay
Procedure: as §1, §2, §3

| SMILES | Mean % Reduction of Pain Compared to Vehicle ([1]; 30 mg/kg subcutaneous) [%] | Mean Difference in Hind Paw Weight Bearing (Saline knee-MIA knee) ([1]; 30 mg/kg subcutaneous) [g] | pain versus vehicle (statistical comparison) [1] | IC50 [2] [nM] | effect on PGF2α production [3] | effect on TXB2 production [3] | IC50 [4] [nM] | effect on synthesis of other prostanoids [5] | Mean % Reduction of Pain Compared to Vehicle ([1]; 10 mg/kg subcutaneous) [%] | Mean Difference in Hind Paw Weight Bearing (Saline knee-MIA knee) ([1]; 10 mg/kg subcutaneous) [g] | Mean % Reduction of Pain Compared to Vehicle ([1]; 50 mg/kg subcutaneous) [%] | Mean Difference in Hind Paw Weight Bearing (Saline knee-MIA knee) ([1]; 50 mg/kg subcutaneous) [g] | 50 mg/kg group compared with the 10 mg/kg group and the diclofenac group ([1]; 50 mg/kg, Bonferroni adjustment for comparison between groups) |
| --- | --- | --- | --- | --- | --- | --- | --- | --- | --- | --- | --- | --- | --- |
| O=C(O)Cc1ccccc1Nc1c(Cl)cccc1Cl [Diclofenac, diclofenac, reference compound] | 22 | 34.65 ± 1.14 | significantly reduce pain |  |  |  |  |  |  |  |  |  |  |
| Cc1nc(NC(=O)c2cc(CNC(=O)C(C)C)cnc2C(F)F)[nH]c1-c1ccc(C(F)(F)F)cc1 [Example 1, 2-(Difluoromethyl)-5-{[(2-methylpropanoyl)amino]methyl}-N-{4-methyl-5-[4-(trifluoromethyl)phenyl]-1H-imidazol-2-yl}pyridine-3-carboxamide] |  |  | significantly reduce pain | 12.1 ± 6.1 | without inhibiting | without inhibiting | 0.944 ± 0.59 | without affecting the synthesis of other prostanoids | 15 | 37.53 ± 0.87 | 36 | 28.44 ± 0.66 | significantly different |

Source: patent US8648200B2, “Imidazole derivatives useful for the treatment of arthritis” (Eli Lilly and Company, priority 2011, dated 2014)
